{"source": "patent US11957766B2", "about": "“HNQO1-activatable fluorescent probe for imaging cancer cells in-vitro and in-vivo” (Texas Tech University System, priority 2019, dated 2024)", "key": {"[1]": {"experiment": "NIR-ASM tolerability and toxicity in vivo", "design": "species or system CD1 mice", "details": "5 mg/kg five times a week for five weeks", "method": "(§1) Assessment of NIR-ASM biocompatibility. Inspired by the excellent photophysical properties of NIR-ASM in monitoring the NQO1 activity in vitro, the inventors determined the biocompatibility of NIR-ASM both in vitro and in vivo before using for endogenous applications. […] Further, to evaluate NIR-ASM tolerability and toxicity in vivo, CD1 mice were grouped for the administration of vehicle (PEG:H2O:EtOH) alone or 5 mg/kg of NIR-ASM five times a week for five weeks. The average mouse weights were monitored as a surrogate marker to the toxicity.\nHematoxylin and eosin (H&E) staining. The hematoxylin and eosin staining were performed as described previously. Briefly, freshly dissected tissues were snap freeze and store at −20° C. for overnight. Frozen tissues were cut into […] slices, the sections were stained in Mayer's Hematoxylin and Eosin solution. Finally, the sections were dehydrated and mounted with Permount in a fume hood. The results were analyzed under a phase-contrast Olympus microscope (Olympus America Inc)."}, "A549 tumor": {"test_system": "A549 tumor", "experiment": "In vivo real-time imaging of NQO1 in A549 xenografts with NIR-ASM", "design": "species or system nude mice", "method": "In vivo real-time imaging of NQO1 in xenografts using NIR-ASM. In vivo real-time imaging offers a powerful tool for accurately diagnosing disease and suspicious lesions with valuable spatiotemporal precision. […] Tumor xenografts were established by implanting exponentially growing lung cancer cells (A549) subcutaneously into nude mice. When tumor growth reached the log phase, NIR-ASM (5 mg/kg in PEG:H2O:EtOH (6:3:1)) was given intravenously and subjected to whole-body fluorescence imaging using an In Vivo Imager (IVIS). […] No signal was apparent in other organs of the animal. To confirm the tumor-selective targeting ability of NIR-ASM, the host organs and tumor from the mice administered with NIR-ASM were harvested and their fluorescence was analyzed ex vivo using the same IVIS. […] Furthermore, the lysates from the tumor and various organs were electrophoresed and western blotted using the NQO1 antibody. NQO1 protein at detectable levels was seen only in the tumor lysate and not in other tissues, thus, reinforcing the specificity of in-vivo imaging (FIG. 14C).\nIn vivo bioimaging. […] All animals were monitored for activity, physical condition, body weight, and tumor growth. […] Fluorescence represented in log values of radiance is photons per second per square centimeter per steradian."}, "NQO1": {"target": "NQO1 (Homo sapiens, UniProt P15559)", "sequence (P15559 whole entry)": "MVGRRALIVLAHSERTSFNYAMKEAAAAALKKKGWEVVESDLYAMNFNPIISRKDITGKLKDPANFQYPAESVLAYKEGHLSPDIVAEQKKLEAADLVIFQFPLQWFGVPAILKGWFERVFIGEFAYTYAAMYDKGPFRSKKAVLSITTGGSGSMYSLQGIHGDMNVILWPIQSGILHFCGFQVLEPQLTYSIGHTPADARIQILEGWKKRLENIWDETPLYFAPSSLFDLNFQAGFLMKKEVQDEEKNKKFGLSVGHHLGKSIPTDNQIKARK", "experiment": "Selectivity of NIR-ASM for NQO1 over other enzymes/substrates", "type": "biochemical", "design": "purchased Sigma-Aldrich D1515", "details": "30 min; GSH, ALDH1A1, GGT, GPx, APE1, CBS, CTSL, GST-pi, NADH, NTR", "description": "Selectivity of NIR-ASM. The selectivity of NIR-ASM probe was studied by examining its reactivity towards various biomolecules and antioxidant enzymes such as the glutathione, aldehyde dehydrogenase 1, gamma-glutamyl transferase, glutathione peroxidase, apurinic/apyrimidinic endonuclease, cystathionine-β-synthase, cathepsin L, glutathione S-transferase, NADH alone and the combination of nitroreductase and NQO1.\nDetermination of NIR-ASM specificity towards NQO1. The specificity towards NQO1 was investigated by incubating NIR-ASM (10 μm) with various biologically relevant analytes such as glutathione (GSH, 1 mM), aldehyde dehydrogenase 1 (ALDH1A1, 2.5 μg/mL), gamma-glutamyl transferase (GGT, 10 U), glutathione peroxidase (GPx, 10 U), apurinic/apyrimidinic endonuclease (APE1, 10 U), cystathionine-β-synthase (CBS, 2 μg/mL), cathepsin L (CTSL, 2 μg/mL), glutathione S-transferase (GST-pi, 2 μg/mL), NADH (100 μM) alone and the combination of nitroreductase (NTR, 2 μg/mL) and NQO1 (2 μg/mL) for 30 min. Fluorescence spectra were analyzed to determine NIR-ASM specificity against NQO1."}, "[2]": {"test_system": "A549 and NCI-H460 cancer cells, IMR 90 and HUVECs normal cells", "experiment": "Cytotoxicity of NIR-ASM, resazurin reduction assay", "type": "cell-based, human", "details": "up to 100 μM, 72 h", "method": "as §1\nCell viability assays. NIR-ASM was evaluated for in vitro cytotoxicity in human cancer (A549 and H460) and normal (IMR90 and HUVECs) cell lines following a protocol of 72 h continuous drug exposure using resazurin reduction assay. The cell lines were grown in 96-well microtiter plates at a density of 5000 cells per well. The plates were incubated for 24 h prior to addition of NIR-ASM. Ten concentrations of NIR-ASM were evaluated in quadruplicate sets. Plates were incubated for a further 72 h and replaced with 20 μL resazurin 0.01% (w/v) containing the medium. After 2 h, the fluorescence was measured using a Tecan Reader (Infinite m200 Pro) at a 544 nm excitation and 590 nm emission."}}}
{"smiles": "CC1=C(C)C(=O)C(C(C)(C)CC(=O)Nc2ccc(/C=C/C3=CC(=C(C#N)C#N)CC(C)(C)C3)cc2)=C(C)C1=O", "note": "[NIR-ASM, (E)-N-(4-(2-(3-(dicyanomethylene)-5,5-dimethylcyclohex-1-en-1-yl)vinyl)phenyl)-3-methyl-3-(2,4,5-trimethyl-3,6-dioxocyclohexa-1,4-dien-1-yl)butanamide]", "values": [{"measurement": "histological features (brain, heart, lung, liver, spleen, kidney; H&E)", "setting": "[1]; versus control", "value": "no significant differences"}, {"measurement": "average body weights", "setting": "[1]; versus vehicle", "value": "no remarkable changes"}, {"measurement": "time at which tumor fluorescence signal reached the plateau", "setting": "A549 tumor; 5 mg/kg intravenously", "value": 30, "unit": "min"}, {"measurement": "ex vivo fluorescence in tumor and organs", "setting": "A549 tumor; organs harvested after NIR-ASM", "value": "observed only in the tumor and not in any other major organs"}, {"measurement": "selectivity for NQO1 over the other enzymes/substrates tested", "setting": "NQO1", "value": "high selectivity"}, {"measurement": "cytotoxicity", "setting": "[2]", "value": "not toxic"}]}
